The test has as its system neuropathy model mice. Put plainly: Von Frey filament stimulation test in streptozotocin-induced neuropathy animal model. In kind it is in vivo, ICR mice. As to conditions: oral, 10, 20, 40 and 80 mg/kg in physiological saline; tested 1, 2, 3, 4 and 5 hours after administration; FIG. 1. On the procedure:
First, a neuropathy animal model was prepared by administering streptozocin. Specifically, streptozotocin was intraperitoneally administered to 4-week-old ICR mice at the concentration of 75 mg/kg. Five weeks after the administration, the expression of neuropathy was confirmed through the level of blood glucose and Von Frey filament stimulation tests, and the mice were used for the following experiments.
Specifically, trimethobenzamide was dissolved in physiological saline to prepare trimethobenzamide solutions with the concentrations of 10, 20, 40 and 80 mg/kg. The prepared trimethobenzamide solutions were orally administered to neuropathy model mice, and Von Frey filament stimulation test was performed 1, 2, 3, 4 and 5 hours after the administration to confirm the inhibitory effect on neuropathy.
Specifically, trimethobenzamide or tramadol was dissolved in physiological saline to prepare trimethobenzamide solution with the concentration of 60 mg/kg, or tramadol solution with the concentration of 20 mg/kg. After co-administration of the tramadol solution with the concentration of 20 mg/kg and the trimethobenzamide solution with the concentration of 20, 40 or 60 mg/kg solution, the effect of the co-administration was confirmed. […]

As for `COc1cc(C(=O)NCc2ccc(OCCN(C)C)cc2)cc(OC)c1OC` [trimethobenzamide], the “inhibitory effect on neuropathy (pain), trimethobenzamide administered alone” value is reported as “significant effect on the inhibition of neuropathy in a concentration-dependent manner”.

These data come from patent US20220257542A1, “PHARMACEUTICAL COMPOSITION COMPRISING TRIMETHOBENZAMIDE OR PHARMACEUTICALLY ACCEPTABLE SALT THEREOF AS ACTIVE INGREDIENT FOR PREVENTING OR TREATING NEUROPATHIC PAIN” (FRONTBIO INC., priority 2019, published 2022).
